In the supplement of paper PMC6045584:
± gives the standard deviation of the averaged measurements.

Key:
[1] = compound: COc1cc2ncnc(Nc3ccc(F)c(Cl)c3)c2cc1NC(=O)/C=C/CN1CCCCC1; assay: surviving fraction relative to DMSO-only wells; higher = less growth inhibition; settings: exposure time: 5 days
How it was run: (§1)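 Tumour cell lines were seeded in log phase at 250–500 cells per well into 384-well plates. Starting 24 hours later, inhibitors were present continuously for five days at 0.5, 1, 5, 10, 50, 100, 500 and 1000 nM. Surviving fraction, from CellTiter-Glo luminescence, is normalised to the median of DMSO-only wells. Three screens per line were required, with replicate Pearson r >0.7 and median Z' >0.3 for a line to be kept.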

ABIRATERONE = compound: C[C@]12CC[C@H](O)CC1=CC[C@@H]1[C@@H]2CC[C@]2(C)C(c3cccnc3)=CC[C@@H]12 [ABIRATERONE]; assay: as above; settings: exposure time: 5 days
How it was run: as §1

Test System	surviving fraction ([1]; 0.5 nM)	surviving fraction ([1]; 1 nM)	surviving fraction ([1]; 5 nM)	surviving fraction ([1]; 10 nM)	surviving fraction ([1]; 50 nM)	surviving fraction ([1]; 100 nM)	surviving fraction ([1]; 500 nM)	surviving fraction ([1]; 1000 nM)	surviving fraction (ABIRATERONE; 0.5 nM)	surviving fraction (ABIRATERONE; 1 nM)	surviving fraction (ABIRATERONE; 5 nM)	surviving fraction (ABIRATERONE; 10 nM)	surviving fraction (ABIRATERONE; 50 nM)	surviving fraction (ABIRATERONE; 100 nM)	surviving fraction (ABIRATERONE; 500 nM)	surviving fraction (ABIRATERONE; 1000 nM)
G292 BONE	1.03 ± 0.021	0.979 ± 0.054	1.05 ± 0.031	1.02 ± 0.03	0.981 ± 0.052	0.9292 ± 0.0084	0.693 ± 0.029	0.424 ± 0.013	1.02 ± 0.028	0.994 ± 0.03	1.06 ± 0.037	1.04 ± 0.026	1.05 ± 0.038	1.05 ± 0.018	1.03 ± 0.034	1.01 ± 0.029
HCC38 BREAST	1.02 ± 0.082	1.21 ± 0.21	1.16 ± 0.044	1.22 ± 0.26	0.954 ± 0.26	1.07 ± 0.046	0.863 ± 0.099	0.716 ± 0.06	1.21 ± 0.22	1.24 ± 0.14	1.22 ± 0.31	1.29 ± 0.38	1.18 ± 0.41	1.32 ± 0.18	1.16 ± 0.12	1 ± 0.14
HCC70 BREAST	1.11 ± 0.059	1.06 ± 0.11	0.926 ± 0.074	0.957 ± 0.11	0.956 ± 0.11	0.975 ± 0.049	0.897 ± 0.091	0.842 ± 0.031	1.1 ± 0.069	1.02 ± 0.088	1.09 ± 0.026	1.11 ± 0.055	1.15 ± 0.13	1.14 ± 0.017	1.03 ± 0.076	0.949 ± 0.098
HMLE3 BREAST	0.953 ± 0.036	0.934 ± 0.063	0.917 ± 0.084	0.953 ± 0.065	0.921 ± 0.069	0.932 ± 0.052	0.793 ± 0.076	0.679 ± 0.035	0.965 ± 0.017	1.01 ± 0.04	1.04 ± 0.063	1.04 ± 0.051	1.12 ± 0.079	1.02 ± 0.084	1.02 ± 0.063	1.04 ± 0.04
HMT3552 BREAST	0.902	0.831	0.845	0.802	0.827	0.792	0.65	0.302	1.05	1.02	1.01	1.09	1.08	1.07	1.32	1.24
HS57T BREAST	0.945 ± 0.064	1.02 ± 0.076	1.07 ± 0.024	1.04 ± 0.038	1.04 ± 0.032	1.04 ± 0.05	0.86 ± 0.064	0.318 ± 0.026	1.06 ± 0.023	1.16 ± 0.059	1.12 ± 0.038	1.1 ± 0.03	1.24 ± 0.06	1.17 ± 0.071	1.08 ± 0.031	1.04 ± 0.1
HS578T BREAST	1.07 ± 0.1	1.15 ± 0.14	1.03 ± 0.12	0.956 ± 0.17	0.985 ± 0.2	1.09 ± 0.1	0.688 ± 0.19	0.412 ± 0.091	1.06 ± 0.16	0.858 ± 0.12	0.945 ± 0.12	0.924 ± 0.2	1.04 ± 0.091	0.996 ± 0.051	0.985 ± 0.065	0.94 ± 0.037
